The supplement of paper PMC10307832

Experiments:
Experiment in all cases: relative viability (nuclei count vs DMSO), 5 days (fraction); higher = more cells survive
NCI-H647 = tested on: NCI-H647
Method in brief: (§1)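 One day after seeding in 1536-well plates, lung cancer cell lines were dosed by pin tool. Dosing was either single-drug or a fixed anchor-drug dose plus five library-drug doses (not always all listed) in √10 steps. After 5 days, nuclei were stained in one fix-and-stain step and counted on 4× images, and relative viability is the nuclei count of treated wells over that of vehicle wells, given as the median of duplicate plates.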

NCI-H1395 = tested on: NCI-H1395
Method in brief: as §1

LCLC-97TM1 = tested on: LCLC-97TM1
Method in brief: as §1

NCI-H838 = tested on: NCI-H838
Method in brief: as §1

NCI-H2085 = tested on: NCI-H2085
Method in brief: as §1

NCI-H322M = tested on: NCI-H322M
Method in brief: as §1

NCI-H2405 = tested on: NCI-H2405
Method in brief: as §1

201T = tested on: 201T
Method in brief: as §1

NCI-H661 = tested on: NCI-H661
Method in brief: as §1

NCI-H1355 = tested on: NCI-H1355
Method in brief: as §1

LU99A = tested on: LU99A
Method in brief: as §1

NCI-H650 = tested on: NCI-H650
Method in brief: as §1

NCI-H2009 = tested on: NCI-H2009
Method in brief: as §1

NCI-H23 = tested on: NCI-H23
Method in brief: as §1

NCI-H2228 = tested on: NCI-H2228
Method in brief: as §1

NCI-H2126 = tested on: NCI-H2126
Method in brief: as §1

HCC-78 = tested on: HCC-78
Method in brief: as §1

BEN = tested on: BEN
Method in brief: as §1

EPLC-272H = tested on: EPLC-272H
Method in brief: as §1

PC-14 = tested on: PC-14
Method in brief: as §1

HCC-15 = tested on: HCC-15
Method in brief: as §1

NCI-H460 = tested on: NCI-H460
Method in brief: as §1

Work on CN1CCN(CCOc2cc(OC3CCOCC3)c3c(Nc4c(Cl)ccc5c4OCO5)ncnc3c2)CC1 [Saracatinib] + CS(=O)(=O)N1CCN(Cc2cc3nc(-c4cccc5[nH]ncc45)nc(N4CCOCC4)c3s2)CC1 [Pictilisib] (partner 1 µM) yielded a relative viability (NCI-H647; first compound 0.02 µM) of 0.386, a relative viability (NCI-H647; first compound 0.2 µM) of 0.387 and a relative viability (NCI-H647; first compound 0.6325 µM) of 0.425. The relative viability (NCI-H647; first compound 2 µM) was 0.216, the relative viability (NCI-H1395; first compound 0.02 µM) was 0.603 and the relative viability (NCI-H1395; first compound 0.2 µM) was 0.497. The relative viability (NCI-H1395; first compound 0.6325 µM) was 0.672, the relative viability (NCI-H1395; first compound 2 µM) was 0.528 and the relative viability (LCLC-97TM1; first compound 0.02 µM) was 0.231. It also gave a relative viability (LCLC-97TM1; first compound 0.2 µM) of 0.12, a relative viability (LCLC-97TM1; first compound 0.6325 µM) of 0.193 and a relative viability (LCLC-97TM1; first compound 2 µM) of 0.186. For the same compound, the relative viability (NCI-H838; first compound 0.02 µM) was 0.351, the relative viability (NCI-H838; first compound 0.2 µM) was 0.447 and the relative viability (NCI-H838; first compound 0.6325 µM) was 0.344. The relative viability (NCI-H838; first compound 2 µM) was 0.326, the relative viability (NCI-H2085; first compound 0.02 µM) was 0.474 and the relative viability (NCI-H2085; first compound 0.2 µM) was 0.345. For the same compound, the relative viability (NCI-H2085; first compound 0.6325 µM) was 0.481, the relative viability (NCI-H2085; first compound 2 µM) was 0.377 and the relative viability (NCI-H322M; first compound 0.02 µM) was 0.549. For the same compound, the relative viability (NCI-H322M; first compound 0.2 µM) was 0.474, the relative viability (NCI-H322M; first compound 0.6325 µM) was 0.496 and the relative viability (NCI-H322M; first compound 2 µM) was 0.296. It also gave a relative viability (NCI-H2405; first compound 0.02 µM) of 0.441, a relative viability (NCI-H2405; first compound 0.2 µM) of 0.366 and a relative viability (NCI-H2405; first compound 0.6325 µM) of 0.352. It also gave a relative viability (NCI-H2405; first compound 2 µM) of 0.22, a relative viability (201T; first compound 0.02 µM) of 0.702 and a relative viability (201T; first compound 0.2 µM) of 0.627. For the same compound, the relative viability (201T; first compound 0.6325 µM) was 0.603, the relative viability (201T; first compound 2 µM) was 0.554 and the relative viability (NCI-H661; first compound 0.02 µM) was 0.452. The relative viability (NCI-H661; first compound 0.2 µM) was 0.271, the relative viability (NCI-H661; first compound 0.6325 µM) was 0.314 and the relative viability (NCI-H661; first compound 2 µM) was 0.241. For the same compound, the relative viability (NCI-H1355; first compound 0.02 µM) was 0.497, the relative viability (NCI-H1355; first compound 0.2 µM) was 0.467 and the relative viability (NCI-H1355; first compound 0.6325 µM) was 0.516. It also gave a relative viability (NCI-H1355; first compound 2 µM) of 0.461, a relative viability (LU99A; first compound 0.02 µM) of 0.334 and a relative viability (LU99A; first compound 0.2 µM) of 0.259. The relative viability (LU99A; first compound 0.6325 µM) was 0.309, the relative viability (LU99A; first compound 2 µM) was 0.299 and the relative viability (NCI-H650; first compound 0.02 µM) was 0.771. It also gave a relative viability (NCI-H650; first compound 0.2 µM) of 0.837, a relative viability (NCI-H650; first compound 0.6325 µM) of 0.871 and a relative viability (NCI-H650; first compound 2 µM) of 0.86. It also gave a relative viability (NCI-H2009; first compound 0.02 µM) of 0.759, a relative viability (NCI-H2009; first compound 0.2 µM) of 0.465 and a relative viability (NCI-H2009; first compound 0.6325 µM) of 0.644. It also gave a relative viability (NCI-H2009; first compound 2 µM) of 0.4, a relative viability (NCI-H23; first compound 0.02 µM) of 0.517 and a relative viability (NCI-H23; first compound 0.6325 µM) of 0.424. It also gave a relative viability (NCI-H23; first compound 2 µM) of 0.35, a relative viability (NCI-H2228; first compound 0.02 µM) of 0.385 and a relative viability (NCI-H2228; first compound 0.2 µM) of 0.206. It also gave a relative viability (NCI-H2228; first compound 0.6325 µM) of 0.244, a relative viability (NCI-H2228; first compound 2 µM) of 0.207 and a relative viability (NCI-H2126; first compound 0.02 µM) of 0.475. For the same compound, the relative viability (NCI-H2126; first compound 0.2 µM) was 0.498, the relative viability (NCI-H2126; first compound 0.6325 µM) was 0.529 and the relative viability (NCI-H2126; first compound 2 µM) was 0.429. The relative viability (HCC-78; first compound 0.02 µM) was 0.242, the relative viability (HCC-78; first compound 0.2 µM) was 0.154 and the relative viability (HCC-78; first compound 0.6325 µM) was 0.178. For the same compound, the relative viability (HCC-78; first compound 2 µM) was 0.21, the relative viability (BEN; first compound 0.02 µM) was 0.57 and the relative viability (BEN; first compound 0.2 µM) was 0.56. It also gave a relative viability (BEN; first compound 0.6325 µM) of 0.573, a relative viability (BEN; first compound 2 µM) of 0.427 and a relative viability (EPLC-272H; first compound 0.02 µM) of 0.337. The relative viability (EPLC-272H; first compound 0.2 µM) was 0.298, the relative viability (EPLC-272H; first compound 0.6325 µM) was 0.388 and the relative viability (EPLC-272H; first compound 2 µM) was 0.232. The relative viability (PC-14; first compound 0.02 µM) was 0.593, the relative viability (PC-14; first compound 0.2 µM) was 0.337 and the relative viability (PC-14; first compound 0.6325 µM) was 0.0893. It also gave a relative viability (PC-14; first compound 2 µM) of 0.0627, a relative viability (HCC-15; first compound 0.02 µM) of 0.797 and a relative viability (HCC-15; first compound 0.2 µM) of 0.585. It also gave a relative viability (HCC-15; first compound 0.6325 µM) of 0.684, a relative viability (HCC-15; first compound 2 µM) of 0.539 and a relative viability (NCI-H460; first compound 0.02 µM) of 0.367. It also gave a relative viability (NCI-H460; first compound 0.6325 µM) of 0.242 and a relative viability (NCI-H460; first compound 2 µM) of 0.286.
